Measured values reported in PMC8402619 (Viruses, 2021).

Key:
[1] = system: CYP1A2; assay: CYP induction in cryopreserved human hepatocytes; settings: positive control, 50 µM, 48 h, n = 3 donors
[2] = system: CYP2B6; assay: CYP induction in cryopreserved human hepatocytes; settings: positive control, 1000 µM, 48 h, n = 3 donors
[3] = molecular target: T1, BCRP (Homo sapiens, UniProt Q9UNQ0); assay: Bidirectional transport across MDCKII and MDCKII-BCRP cell monolayers; format: in vitro ADME; parameters: expressed in transfected cells; host or cells: MDCKII; settings: positive control substrate 1 µM, mean ± SEM
T1 sequence (Q9UNQ0 1-655): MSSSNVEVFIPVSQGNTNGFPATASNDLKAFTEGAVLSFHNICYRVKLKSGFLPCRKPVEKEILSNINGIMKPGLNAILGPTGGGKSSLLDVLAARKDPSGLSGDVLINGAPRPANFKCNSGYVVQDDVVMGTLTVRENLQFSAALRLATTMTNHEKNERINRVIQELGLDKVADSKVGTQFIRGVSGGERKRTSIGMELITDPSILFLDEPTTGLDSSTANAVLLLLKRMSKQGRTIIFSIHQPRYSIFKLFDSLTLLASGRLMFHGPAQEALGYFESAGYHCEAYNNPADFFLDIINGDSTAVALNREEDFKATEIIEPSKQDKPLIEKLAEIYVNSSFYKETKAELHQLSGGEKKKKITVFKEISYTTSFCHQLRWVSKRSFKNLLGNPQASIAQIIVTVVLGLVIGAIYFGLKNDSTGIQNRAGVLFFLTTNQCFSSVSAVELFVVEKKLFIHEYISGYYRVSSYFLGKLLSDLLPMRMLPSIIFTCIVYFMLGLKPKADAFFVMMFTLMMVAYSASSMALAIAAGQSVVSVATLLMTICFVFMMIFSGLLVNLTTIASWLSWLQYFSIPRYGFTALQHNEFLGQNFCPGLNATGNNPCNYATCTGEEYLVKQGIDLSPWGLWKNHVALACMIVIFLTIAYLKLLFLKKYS

COc1ccc2[nH]c([S+]([O-])Cc3ncc(C)c(OC)c3C)nc2c1 (stereo not shown) [Omeprazole, reference compound]
mRNA Mean Fold Change ± SD CYP1A2 [1]: 26.4 ± 8.6

CCC1(c2ccccc2)C(=O)NC(=O)NC1=O [Phenobarbitol, reference compound]
mRNA Mean Fold Change ± SD CYP2B6 [2]: 18.5 ± 1.9

COc1cc2nc(N3CCN(C(=O)c4ccco4)CC3)nc(N)c2cc1OC [prazosin, reference compound]
efflux ratio ([3]; dog, MDCK, untransfected control cells): 1 ± 0.09 | efflux ratio ([3]; human, BCRP-transfected monolayers): 14.9 ± 4.9
